Experiment in all cases: DTP human tumour cell line panel, 48 h
The test system of test [1] is SK-OV-3.
The subject of test [2] is CCRF-CEM.
In test [3] the test system is 786-0.
Test [4] relates to HOP-92.
In test [5] the test system is RXF 393.
Test [6] relates to U-251.
Test [7] deals with UACC-62.
Test [8] deals with SF-268.
In test [9] the test system is HCT-15.
For test [10], the system named is OVCAR-8.
Test [11] relates to COLO 205.
In test [12] the test system is NCI-H23.
Test [13] relates to M14.
The test system of test [14] is IGROV-1.
For test [15], the system named is KM12.
Test [16] deals with TK-10.
For test [17], the system named is OVCAR-5.

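Step 1: Grow cells in 96-well plates. Step 2: Expose to compound for 48 hours at 5 concentrations. Step 3: Interpolate endpoints linearly; if unreached, use highest concentration. Abbreviation: GI50, concentration required for 50% inhibition of growth.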 Activity calls are given as the source filed them. Cut-off read from the data, not from the text of the source: active = GI50 up to about 1.1 µM and inactive = higher.

Broadly, the GI50 is the concentration at which growth is held to half of that of the control. Turning to `Cc1occ2c1C(=O)CC1C2[C@@H](O)CC2C(C)(C)CCC[C@]12C` (some centres not stated), the GI50 in [1] was > 100 µM (inactive); in test [2], 42.7 µM (inactive); in [3] it was > 100 µM (inactive); in test [4], > 100 µM (inactive); in [5] it was > 100 µM (inactive); in test [6], 94.8 µM (inactive). Moreover, the GI50 was 95.7 µM (inactive) in [7]; > 100 µM (inactive) in [8]; more than 100 µM in test [9]; > 100 µM (inactive) in test [10]; > 100 µM (inactive) in test [11]; > 100 µM (inactive) in test [12]. In addition, the GI50 in test [13] and in test [14] was > 100 µM (inactive) each time.
As for `COC(=O)C(=O)C(CC(=O)Nc1c(C)cccc1C)C(=O)OC` (configuration not stated), the GI50 in test [1], in test [2], in test [3], in test [15], in test [4] and in [5] was > 100 µM (inactive) each time. In addition, the GI50 in [6] is > 100 µM (inactive); in test [7] it was > 100 µM (inactive); in test [8], > 100 µM (inactive); in test [16], > 100 µM (inactive); in [9], more than 100 µM; in test [10], > 100 µM (inactive). In addition, the GI50 in test [12], in test [13], in [14] and in test [17] was > 100 µM (inactive) each time.
Consider `Nc1nncc2c1c(Br)cn2C1OC(CO)C(O)C1O` (configuration not stated), for which the GI50 in test [1] was > 96.6 µM (inactive); in test [2], 2.33 µM (inactive); in test [3], 21.1 µM (inactive); in test [15] it was 43.9 µM (inactive); in [4], 8.63 µM (inactive); in test [5], 30.8 µM (inactive). Moreover, the GI50 in test [6] was > 70.6 µM (inactive); in test [7], 56.9 µM (inactive); in test [8] it was 35.1 µM (inactive); in test [16], 51.4 µM (inactive); in test [9], 4.23 µM; in test [10] it was 1.49 µM (inactive). Moreover, the GI50 was 48.6 µM (inactive) in test [11]; 10.9 µM (inactive) in [12]; 23.9 µM (inactive) in test [13]; 25.1 µM (inactive) in test [14]; > 62.2 µM (inactive) in test [17].
For `Cc1c(Cl)cccc1NC(=O)/C(Cl)=C(\Cl)C(=O)O`, the GI50 in [1] was 18.9 µM (inactive); in test [2] it was 4.14 µM (inactive); in [3] it was 18.4 µM (inactive); in test [15], 17.3 µM (inactive); in test [4], 17.4 µM (inactive); in test [5], 19.9 µM (inactive). Also, the GI50 in test [6] is 18.5 µM (inactive); in [7], 13.2 µM (inactive); in test [8], 22.6 µM (inactive); in test [16], 20.9 µM (inactive); in test [9], 16.4 µM; in [11], 9.4 µM (inactive). For the same compound, the GI50 in test [12] was 19.5 µM (inactive); in test [13], 16.1 µM (inactive); in test [14], 19.5 µM (inactive); in test [17], 16.9 µM (inactive).
`COc1cc2cccc(/N=C\c3ccccc3Cl)c2cc1OC`: the GI50 is > 100 µM (inactive) in [1]; 22.8 µM (inactive) in test [2]; > 100 µM (inactive) in test [3]; > 100 µM (inactive) in test [15]; > 100 µM (inactive) in [4]; > 100 µM (inactive) in test [5]. For the same compound, the GI50 in test [6] was 95.9 µM (inactive); in [7], 66.5 µM (inactive); in test [8] it was > 100 µM (inactive); in [16] it was > 100 µM (inactive); in [9], 25.5 µM; in test [10], > 100 µM (inactive). Moreover, the GI50 in test [11], in test [12], in [13], in test [14] and in test [17] was > 100 µM (inactive) in each case.
For `O=C(Cc1ccccc1)N/N=C(/c1nc2ccc([N+](=O)[O-])cc2nc1O)C(O)c1ccc(C(O)/C(=N/NC(=O)Cc2ccccc2)c2nc3ccc([N+](=O)[O-])cc3nc2O)cc1` (configuration not stated), the GI50 in test [1] is > 100 µM (inactive); in test [2], 7.26 µM (inactive); in test [3], > 100 µM (inactive); in test [4], > 100 µM (inactive); in [5], > 100 µM (inactive); in [7] it was 35.6 µM (inactive). In addition, the GI50 in [8] is 20.2 µM (inactive); in test [16] it was 48.1 µM (inactive); in [9], 19.4 µM; in [10], 80.4 µM (inactive); in [11], 37.5 µM (inactive); in [12], > 100 µM (inactive). Besides, the GI50 in test [13] was 40.6 µM (inactive); in test [14], > 100 µM (inactive); in test [17], 40.4 µM (inactive).
Take `Cc1ccc([N+](=O)[O-])cc1NC(=O)/C(CC(=O)c1sc(C(N)=S)nc1C)=N\N`: the GI50 is 44.1 µM (inactive) in [1]; 26.9 µM (inactive) in [2]; 40.6 µM (inactive) in [3]; 54.1 µM (inactive) in test [15]; 62.8 µM (inactive) in [4]; > 100 µM (inactive) in [5]. Also, the GI50 in test [6] is 32.1 µM (inactive); in test [7], > 100 µM (inactive); in test [8], > 100 µM (inactive); in test [16], > 100 µM (inactive); in test [9] it was more than 100 µM; in [10] it was > 100 µM (inactive). For the same compound, the GI50 in [12] was 31.7 µM (inactive); in [13], > 100 µM (inactive); in test [14] it was 30.6 µM (inactive); in test [17], > 100 µM (inactive).
In the case of `CCOC(=O)c1[nH]c2cc(OC)c(OC)cc2c1CN(C)C`, the GI50 in test [1], in [2], in test [3], in [15], in [4] and in test [5] was > 100 µM (inactive) each time. The GI50 was > 100 µM (inactive) in test [6]; > 100 µM (inactive) in test [7]; > 100 µM (inactive) in [8]; > 100 µM (inactive) in test [16]; more than 100 µM in test [9]; > 100 µM (inactive) in test [10]. The GI50 in test [12], in [13], in test [14] and in [17] was > 100 µM (inactive) in each case.
Turning to `CC(=O)c1ccc(NC(=O)C(=O)Nn2c(S)nc3ccccc3c2=O)cc1`, the GI50 in test [1], in test [3], in [15], in test [4], in test [5] and in test [6] was > 100 µM (inactive) in each case. Further, the GI50 was > 100 µM (inactive) in test [7]; > 100 µM (inactive) in test [8]; > 100 µM (inactive) in test [16]; more than 100 µM in [9]; > 100 µM (inactive) in [10]; > 100 µM (inactive) in test [11]. The GI50 in test [12], in test [13], in [14] and in test [17] was > 100 µM (inactive) throughout.
In the case of `CC(=O)c1cccc(NC(=O)/C(=N\NC(C)(C)C)c2c(O)c3ccccc3oc2=O)c1`, the GI50 in test [1], in test [2], in test [3], in test [15], in test [4] and in [5] was > 100 µM (inactive) in each case. Moreover, the GI50 in test [7] was > 100 µM (inactive); in test [8] it was > 100 µM (inactive); in [16], > 100 µM (inactive); in [9], more than 100 µM; in [10], > 100 µM (inactive); in test [11] it was > 100 µM (inactive). In addition, the GI50 in [12], in [13] and in test [14] was > 100 µM (inactive) in each case.
For the compound `N#CCc1ccc(C(C#N)/C(CCCC(=O)Nc2cccc([N+](=O)[O-])c2)=N\NC(=O)NN)cc1` (configuration not stated), the GI50 in test [1], in test [2], in test [3], in test [15], in test [4] and in test [5] was > 100 µM (inactive) in each case. Moreover, the GI50 in [6] was > 100 µM (inactive); in test [7] it was > 100 µM (inactive); in [8], > 100 µM (inactive); in test [16], > 100 µM (inactive); in [9], more than 100 µM; in [10], > 100 µM (inactive). Moreover, the GI50 in test [11], in [12], in test [13], in test [14] and in test [17] was > 100 µM (inactive) each time.
`C=C[C@]1(C)CCC2=C(CCC3C2(C)CCC[C@]3(C)CO)C1` (some centres not stated): the GI50 in [1] is > 100 µM (inactive); in test [2] it was 33 µM (inactive); in test [3], 59.8 µM (inactive); in test [15] it was 38.4 µM (inactive); in test [4], 43.1 µM (inactive); in test [5] it was 25.8 µM (inactive). Moreover, the GI50 in test [6] was 26.9 µM (inactive); in test [7], 76.9 µM (inactive); in test [8], 33.4 µM (inactive); in test [16], > 100 µM (inactive); in test [9], 33 µM; in test [10] it was 60.5 µM (inactive). Also, the GI50 was 38.4 µM (inactive) in test [11]; 50.4 µM (inactive) in test [12]; 75.5 µM (inactive) in test [13]; > 100 µM (inactive) in test [14]; > 100 µM (inactive) in [17].

These data come from ChEMBL document CHEMBL1201862, “PubChem BioAssay data set” (2004).
